# US20220022465A1, “METHODS AND COMPOSITIONS FOR REPELLING BIRDS IN CROP PLANTS” (Bayer Aktiengesellschaft, priority 2019, published 2022)
# System: pigeons
# Experiment: Third repellency test 3.3, compared with pigeons offered untreated seeds in parallel at Day 0
# Format: in vivo
# From the text: The test procedure was however slightly changed compared to the trials in Examples 3.1 and 3.2. Indeed, instead of simply comparing the effect of the tested compositions against the untreated seeds offered to the pigeons at Day-1, here a set of the pigeons was also offered untreated seeds at Day 0 in parallel to the set of pigeons being offered the seeds treated with a composition. The results for the set of pigeons having received the treated seeds are therefore compared to the results for the set of pigeons having received the untreated seeds in parallel at Day 0 (instead of the results for the set of the pigeons having received the untreated seeds at Day-1). Two trials under this setting have been performed with different compositions.
# Trial 1: • Black pepper at the dose of 40.5 ml/50000 corn seeds • Garlic at the dose of 4.5 ml/50000 corn seeds • Mixture of Black pepper (90%) and garlic (10%) at the dose of 45 ml/50000 corn seeds
# Trial 2: • Black pepper at the dose of 40.5 ml/50000 corn seeds • Garlic at the dose of 4.5 ml/50000 corn seeds • Mixture of Black pepper (90%) and garlic (10%) at the dose of 45 ml/50000 corn seeds • Thiram at the dose of 45 ml/50000 corn seeds
compound,measurement,setting,value
CN(C)C(=S)SSC(=S)N(C)C [Thiram],Percentage (%) of reduction of feed consumption,"Trial 2, 45 ml per 50000 maize seeds",65%
same,"Repellency effect on seed consumption, in words","test 3.3, doses of Table 4",good repellency effect on seed consumption
